The values that follow come from ChEMBL document CHEMBL5465560, “Selectivity Literature for EUbOPEN Chemogenomic Library” (2024).

The target in experiment [1] is Serine/threonine-protein kinase 35 (Homo sapiens) (UniProt Q8TDR2). Description: Selectivity interaction (KinomeScan (DiscoverX)) EUB0001079a STK35. Conditions: at 1 µM.
Experiment [2] concerns the target Casein kinase I isoform epsilon (Homo sapiens, UniProt P49674). Description: Selectivity interaction (KinomeScan (DiscoverX)) EUB0001619a CSNK1E. Conditions: at 1 µM.
Experiment [3] has as its target T1, Myosin-IIIb (Homo sapiens) (UniProt Q8WXR4).
T1 sequence (whole entry): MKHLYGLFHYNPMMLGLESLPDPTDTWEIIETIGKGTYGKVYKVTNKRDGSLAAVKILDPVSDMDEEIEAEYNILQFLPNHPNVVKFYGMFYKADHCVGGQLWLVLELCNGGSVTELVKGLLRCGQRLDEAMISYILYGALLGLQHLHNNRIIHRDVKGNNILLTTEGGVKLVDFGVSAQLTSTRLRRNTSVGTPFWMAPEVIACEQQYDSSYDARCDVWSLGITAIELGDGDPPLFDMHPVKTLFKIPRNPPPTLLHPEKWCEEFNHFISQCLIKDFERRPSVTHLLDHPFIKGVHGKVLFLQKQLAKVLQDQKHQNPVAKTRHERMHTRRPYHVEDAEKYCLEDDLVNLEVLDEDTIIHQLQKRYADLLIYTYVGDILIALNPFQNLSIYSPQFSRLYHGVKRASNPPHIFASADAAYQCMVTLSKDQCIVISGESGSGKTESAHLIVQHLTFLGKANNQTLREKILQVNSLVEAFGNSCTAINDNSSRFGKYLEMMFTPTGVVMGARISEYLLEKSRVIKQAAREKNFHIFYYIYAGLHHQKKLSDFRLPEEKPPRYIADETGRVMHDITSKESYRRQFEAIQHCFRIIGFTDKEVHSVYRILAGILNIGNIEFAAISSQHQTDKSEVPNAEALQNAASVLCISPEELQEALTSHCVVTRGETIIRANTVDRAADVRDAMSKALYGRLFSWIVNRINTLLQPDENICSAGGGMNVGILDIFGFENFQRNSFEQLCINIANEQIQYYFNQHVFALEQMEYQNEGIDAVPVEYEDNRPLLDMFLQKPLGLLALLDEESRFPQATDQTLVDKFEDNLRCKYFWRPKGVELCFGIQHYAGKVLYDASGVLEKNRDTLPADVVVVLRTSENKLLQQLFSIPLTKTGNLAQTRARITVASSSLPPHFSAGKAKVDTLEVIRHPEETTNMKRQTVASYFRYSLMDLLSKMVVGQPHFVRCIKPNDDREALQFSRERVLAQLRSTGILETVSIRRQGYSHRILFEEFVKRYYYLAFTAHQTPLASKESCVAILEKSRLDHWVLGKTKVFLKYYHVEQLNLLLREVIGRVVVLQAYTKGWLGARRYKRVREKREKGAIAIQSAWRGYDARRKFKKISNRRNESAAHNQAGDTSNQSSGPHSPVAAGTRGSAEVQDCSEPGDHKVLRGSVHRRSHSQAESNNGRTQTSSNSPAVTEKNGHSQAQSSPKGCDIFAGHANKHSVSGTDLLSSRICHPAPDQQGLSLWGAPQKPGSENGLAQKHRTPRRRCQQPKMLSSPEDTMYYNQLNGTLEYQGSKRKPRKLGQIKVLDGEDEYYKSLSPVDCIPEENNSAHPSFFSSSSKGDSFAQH
Description: Selectivity interaction (KinomeScan (DiscoverX)) EUB0001619a MYO3B. Conditions: at 1 µM.

Experiment [4] deals with Dual specificity mitogen-activated protein kinase kinase 1 (Homo sapiens, UniProt Q02750). Description: Selectivity interaction (ActivX KiNativ screen (kinase selectivity in THP-1 cell lysates)) EUB0000639a MAP2K1. In kind it is subcellular. Conditions: lysate.
Experiment [5] addresses T2, Calcium/calmodulin-dependent protein kinase type IV (Homo sapiens) (UniProt Q16566).
T2 sequence (whole entry): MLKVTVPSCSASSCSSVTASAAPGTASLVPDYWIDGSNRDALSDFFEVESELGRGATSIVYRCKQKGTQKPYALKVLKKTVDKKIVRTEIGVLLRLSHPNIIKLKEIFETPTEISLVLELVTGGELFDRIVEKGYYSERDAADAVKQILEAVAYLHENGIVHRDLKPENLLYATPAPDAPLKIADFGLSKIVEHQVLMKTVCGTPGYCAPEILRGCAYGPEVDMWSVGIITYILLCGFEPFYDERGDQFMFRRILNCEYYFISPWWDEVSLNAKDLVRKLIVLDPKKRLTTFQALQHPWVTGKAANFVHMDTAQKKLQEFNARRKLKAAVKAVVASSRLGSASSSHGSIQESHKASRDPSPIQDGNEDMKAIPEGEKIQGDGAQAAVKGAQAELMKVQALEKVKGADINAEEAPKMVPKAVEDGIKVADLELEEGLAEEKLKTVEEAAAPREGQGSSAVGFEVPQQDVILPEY
Description: Selectivity interaction (Millipore kinase profiler) EUB0000124b CAMK4. Conditions: at 10 µM.

Experiment [6] concerns the target T3, Inhibitor of nuclear factor kappa-B kinase subunit beta (Homo sapiens) (UniProt O14920).
T3 sequence (whole entry): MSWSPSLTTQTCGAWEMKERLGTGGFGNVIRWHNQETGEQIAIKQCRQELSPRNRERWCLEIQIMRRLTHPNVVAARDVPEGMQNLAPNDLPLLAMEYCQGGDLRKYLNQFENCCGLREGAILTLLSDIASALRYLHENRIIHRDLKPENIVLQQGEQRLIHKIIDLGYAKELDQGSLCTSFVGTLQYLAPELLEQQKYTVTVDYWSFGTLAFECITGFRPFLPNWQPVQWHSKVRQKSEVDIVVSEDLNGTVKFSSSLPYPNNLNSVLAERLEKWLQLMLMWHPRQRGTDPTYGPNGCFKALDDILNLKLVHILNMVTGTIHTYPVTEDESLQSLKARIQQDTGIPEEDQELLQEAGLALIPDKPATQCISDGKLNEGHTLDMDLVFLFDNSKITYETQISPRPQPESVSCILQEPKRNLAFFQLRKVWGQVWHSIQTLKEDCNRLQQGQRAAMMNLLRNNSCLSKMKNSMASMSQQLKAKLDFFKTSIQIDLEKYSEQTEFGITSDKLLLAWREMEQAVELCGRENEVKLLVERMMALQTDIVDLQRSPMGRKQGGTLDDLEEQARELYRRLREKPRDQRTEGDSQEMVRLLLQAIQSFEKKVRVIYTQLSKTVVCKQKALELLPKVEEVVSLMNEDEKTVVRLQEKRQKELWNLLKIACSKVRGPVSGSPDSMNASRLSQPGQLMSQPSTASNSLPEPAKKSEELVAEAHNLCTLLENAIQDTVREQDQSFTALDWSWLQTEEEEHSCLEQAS
Description: Selectivity interaction (KinomeScan (DiscoverX)) EUB0001049a IKBKB. Conditions: at 1 µM.

The target in experiment [7] is Mitogen-activated protein kinase 3 (Homo sapiens, UniProt P27361). Description: Selectivity interaction (KinomeScan (DiscoverX)) EUB0000618a MAPK3. Conditions: at 10 µM.
For experiment [8], the target named is Hepatocyte growth factor receptor (Homo sapiens, UniProt P08581). Description: Selectivity interaction (Kinase panel (enzymatic assay)) EUB0000595a MET.
Hepatocyte growth factor receptor, sequence (P08581 whole entry): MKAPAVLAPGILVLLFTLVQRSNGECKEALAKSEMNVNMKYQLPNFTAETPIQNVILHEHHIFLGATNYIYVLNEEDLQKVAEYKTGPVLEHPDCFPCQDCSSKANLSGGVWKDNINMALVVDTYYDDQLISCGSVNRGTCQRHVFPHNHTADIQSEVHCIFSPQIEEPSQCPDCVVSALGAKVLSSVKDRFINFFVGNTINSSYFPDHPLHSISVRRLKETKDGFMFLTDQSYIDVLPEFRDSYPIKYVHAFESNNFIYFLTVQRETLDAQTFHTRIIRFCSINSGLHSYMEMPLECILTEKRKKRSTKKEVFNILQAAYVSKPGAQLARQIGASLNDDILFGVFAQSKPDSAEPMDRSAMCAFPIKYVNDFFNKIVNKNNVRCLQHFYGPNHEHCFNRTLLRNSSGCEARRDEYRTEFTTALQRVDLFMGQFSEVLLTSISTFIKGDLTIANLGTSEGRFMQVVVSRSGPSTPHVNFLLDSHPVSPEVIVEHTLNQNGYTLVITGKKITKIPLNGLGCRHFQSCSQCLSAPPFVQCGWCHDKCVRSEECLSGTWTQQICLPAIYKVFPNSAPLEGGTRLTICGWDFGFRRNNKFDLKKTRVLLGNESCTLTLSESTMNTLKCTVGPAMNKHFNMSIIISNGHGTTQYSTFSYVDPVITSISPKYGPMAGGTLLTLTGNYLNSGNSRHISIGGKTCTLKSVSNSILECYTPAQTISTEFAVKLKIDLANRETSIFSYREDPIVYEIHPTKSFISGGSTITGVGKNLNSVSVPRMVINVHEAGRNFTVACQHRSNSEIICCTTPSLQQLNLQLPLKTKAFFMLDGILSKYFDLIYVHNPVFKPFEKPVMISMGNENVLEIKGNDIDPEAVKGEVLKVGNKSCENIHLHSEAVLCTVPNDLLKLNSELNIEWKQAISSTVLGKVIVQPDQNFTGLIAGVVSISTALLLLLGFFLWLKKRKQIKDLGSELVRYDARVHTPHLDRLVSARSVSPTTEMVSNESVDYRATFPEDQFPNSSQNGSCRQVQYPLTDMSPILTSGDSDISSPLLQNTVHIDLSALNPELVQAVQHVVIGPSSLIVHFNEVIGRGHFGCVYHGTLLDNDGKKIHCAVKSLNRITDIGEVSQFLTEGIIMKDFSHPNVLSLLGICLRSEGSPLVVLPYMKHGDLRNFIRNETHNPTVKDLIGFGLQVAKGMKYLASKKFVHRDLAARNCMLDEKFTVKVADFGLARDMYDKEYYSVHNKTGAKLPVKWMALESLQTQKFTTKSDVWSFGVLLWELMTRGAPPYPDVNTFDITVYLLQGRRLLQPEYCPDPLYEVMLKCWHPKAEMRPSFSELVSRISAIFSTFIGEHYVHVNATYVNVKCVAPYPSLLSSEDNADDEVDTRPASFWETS

Dual specificity mitogen-activated protein kinase kinase 1, sequence (Q02750 whole entry): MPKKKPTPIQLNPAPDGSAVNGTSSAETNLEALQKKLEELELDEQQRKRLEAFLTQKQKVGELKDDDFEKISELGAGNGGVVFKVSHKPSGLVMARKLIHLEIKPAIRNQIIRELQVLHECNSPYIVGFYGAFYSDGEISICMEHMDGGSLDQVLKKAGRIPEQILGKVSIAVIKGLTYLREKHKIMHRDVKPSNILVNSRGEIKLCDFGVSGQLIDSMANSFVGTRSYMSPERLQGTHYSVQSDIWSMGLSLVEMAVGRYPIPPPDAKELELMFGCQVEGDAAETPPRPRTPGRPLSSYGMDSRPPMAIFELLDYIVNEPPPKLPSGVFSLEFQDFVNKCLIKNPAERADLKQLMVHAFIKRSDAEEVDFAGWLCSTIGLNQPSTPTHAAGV
Mitogen-activated protein kinase 3, sequence (P27361 whole entry): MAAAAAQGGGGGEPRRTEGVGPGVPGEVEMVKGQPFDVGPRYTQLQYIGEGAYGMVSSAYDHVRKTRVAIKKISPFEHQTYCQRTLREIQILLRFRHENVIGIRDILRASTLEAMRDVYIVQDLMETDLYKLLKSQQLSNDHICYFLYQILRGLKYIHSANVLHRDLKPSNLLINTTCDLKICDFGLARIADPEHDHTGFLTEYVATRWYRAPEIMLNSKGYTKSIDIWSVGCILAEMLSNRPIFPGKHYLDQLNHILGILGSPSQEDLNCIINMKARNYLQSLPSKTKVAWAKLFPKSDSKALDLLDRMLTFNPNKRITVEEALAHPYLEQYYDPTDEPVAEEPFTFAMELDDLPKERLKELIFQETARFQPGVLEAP
Casein kinase I isoform epsilon, sequence (P49674 whole entry, looked up, canonical isoform): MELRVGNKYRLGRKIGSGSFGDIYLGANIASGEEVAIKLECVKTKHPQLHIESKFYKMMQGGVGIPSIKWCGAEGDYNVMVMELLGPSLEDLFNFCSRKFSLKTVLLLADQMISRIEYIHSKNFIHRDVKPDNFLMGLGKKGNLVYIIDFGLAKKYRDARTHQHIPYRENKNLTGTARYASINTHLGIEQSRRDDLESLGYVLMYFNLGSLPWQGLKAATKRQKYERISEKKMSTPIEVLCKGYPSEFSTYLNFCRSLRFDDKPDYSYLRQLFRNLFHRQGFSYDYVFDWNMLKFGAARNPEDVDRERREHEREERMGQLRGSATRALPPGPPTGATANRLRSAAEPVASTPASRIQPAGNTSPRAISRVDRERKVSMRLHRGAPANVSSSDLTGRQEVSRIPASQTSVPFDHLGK
Serine/threonine-protein kinase 35 (Homo sapiens), sequence (Q8TDR2 whole entry, canonical isoform): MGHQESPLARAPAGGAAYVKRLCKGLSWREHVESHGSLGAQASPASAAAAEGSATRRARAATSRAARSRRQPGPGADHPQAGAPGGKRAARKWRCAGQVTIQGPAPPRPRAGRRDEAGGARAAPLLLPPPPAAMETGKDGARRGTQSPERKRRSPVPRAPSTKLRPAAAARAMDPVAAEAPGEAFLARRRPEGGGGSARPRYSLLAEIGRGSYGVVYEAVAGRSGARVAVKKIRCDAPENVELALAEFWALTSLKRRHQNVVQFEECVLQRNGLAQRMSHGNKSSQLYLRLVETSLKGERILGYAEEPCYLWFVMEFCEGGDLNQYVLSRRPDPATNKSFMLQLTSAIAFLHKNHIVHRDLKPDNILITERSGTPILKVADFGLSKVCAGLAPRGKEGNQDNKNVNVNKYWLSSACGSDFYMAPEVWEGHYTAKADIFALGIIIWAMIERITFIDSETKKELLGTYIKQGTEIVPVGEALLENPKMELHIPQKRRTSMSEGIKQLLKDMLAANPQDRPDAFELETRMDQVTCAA

In turn, `Nc1cnc(N2CCc3cc(S(=O)(=O)Nc4c(F)cc(Cl)cc4F)cc(N4CCCC4=O)c32)nc1` [TP-020n] gave a % of control in experiment [1] of 100%.
Turning to `N#Cc1cccc(-c2c[nH]c3ncnc(N4CCOCC4)c23)c1`, the % of control in experiment [2] was 75%; in experiment [3], 100%.
On to `CC[C@@H]1[C@H](F)C(=O)N[C@@H]1COc1nccc2cc(C(N)=O)c(OC)cc12` [ZIMLOVISERTIB], for which the % of inhibition is -25.6% in experiment [4] (at 0.01 µM); -4.8% in experiment [4] (at 0.04 µM); -3.6% in experiment [4] (at 0.2 µM); 3.1% in experiment [4] (at 1 µM); 18.5% in experiment [4] (at 5 µM).
For the compound `CC(=O)Nc1cccc(-n2c(=O)n(C3CC3)c(=O)c3c(Nc4ccc(I)cc4F)n(C)c(=O)c(C)c32)c1`, the % of control in experiment [5] was determined as 97%.
On to `COc1cc(Nc2nc(C)cc(-c3cnn4nc(OC)ccc34)n2)cc(C(F)(F)F)c1`, for which the % of control in experiment [6] was 81%.
`O[C@H]1CC[C@H](Nc2ncc3nc(Nc4c(F)cc(F)cc4F)n([C@H]4CCOC4)c3n2)CC1` yielded a % of control in experiment [7] of 32%.
`COCC(=O)NC/C=C/c1ccc2ncnc(Nc3ccc(Oc4ccc(C)nc4)c(C)c3)c2c1` [CP-724714]: in experiment [8], the IC50 is > 10 µM.

In general, IC50 refers to the concentration that gives 50% inhibition. Read a low IC50 as higher potency.
